Source: US20230414598A1, “COMBINATION THERAPIES WITH CBL-B INHIBITOR COMPOUNDS AND ANTIEMETIC AGENTS” (NURIX THERAPEUTICS, INC., priority 2022, published 2023)
One block for each compound: values may come before it.

Tests used:
Assay type in all cases: in vivo, human
[1] = Pharmacokinetic analysis of compound 23 plasma concentrations in patients (LC-MS/MS, non-compartmental); conditions: for AUC(0-t) / Cmax / half-life / Tmax: human, plasma; for AUC(0-t) / Cmax: geometric mean; for half-life: mean; for Tmax: median
Procedure: Patients were administered doses of compound 23 ranging from 5 to 50 mg once daily. Plasma concentrations of compound 23 were quantified using acetonitrile precipitation and LC-MS/MS. The peak area of the product ion of the analyte was measured against the peak area of the product ion of the stable label internal standard. A calibration curve spanning the curve range and containing at least six conentrations in duplicate was used to quantify the analyte concentration. The retention times of the analyte and internal standard are approximately 1.5 minutes. PK analyses were donucted using non-compartmental analyses to obtain PK parameters. […] Patients were administered doses of compound 23 ranging from 5 to 50 mg once daily. Plasma concentrations of compound 23 were quantified using acetonitrile precipitation and LC-MS/MS. The peak area of the product ion of the analyte was measured against the peak area of the product ion of the stable label internal standard. A calibration curve spanning the curve range and containing at least six conentrations in duplicate was used to quantify the analyte concentration. The retention times of the analyte and internal standard are approximately 1.5 minutes. PK analyses were donucted using non-compartmental analyses to obtain PK parameters. […] PK data are provided below (Cmax and AUC0-last are presented as geometric mean (geometric %C V); Tmax is presented as median (range); t1/2 is presented as mean (% CV).

[2] = Adverse events after oral administration of compound 23 to patients
Procedure: The nausea and vomiting symptoms were mitigated when a single oral (versus other routes of adminstration such as intravenous) dose of 5-HT3 antagonist was administered 30-60 minutes prior to the compound 23 dosing. […] The adverse events (e.g., symptoms include nausea, vomiting, headache, hypotension, tachycardia, bradycardia, among others) were resolved within 24 hours prior to the next dose. The nausea and vomiting were controlled by serotonin (5-HT3) receptor blockers, ondansetron and granisetron.

[3] = system: patient's nausea and vomiting symptoms; test: Antiemetic given prior to compound 23: control of nausea and vomiting; conditions: for effect on emetic symptoms (nausea and vomiting): single oral dose 30-60 minutes prior to compound 23 dosing
Procedure: Prior to administration of compound 23, the antiemetic was administered as outlined below. Example 1: ondansetron via IV: 8 mg or 0.15 mg/kg as single dose; maximum dose of 16 mg/dose. Example 1B: ondansetron via oral: 8 mg up to twice daily. In this example, the patient was weaned off ondansetron via oral after two weeks. […] Example 2: granisetron via IV: 1 mg or 10 mcg/kg as a single dose. Example 2B granisetron via oral: 2 mg as a single dose. In this example, the patient was weaned off oral granisetron after four weeks. […] Example 2C: granisetron via SUBQ: 10 mg as single dose. Example 2D: granisetron via transdermal: apply one patch. Example 5: metoclopramide, a dopamine antagonist, via oral: 10 mg 30 minutes prior to the adminstration of compound 23. […] Example 6: diphenhydramine, a histamine antagonist, via oral or parental: 25 mg or 50 mg 30 minutes prior to the adminstration of compound 23.

5-HT = 5-HT levels in the local gut after compound 23; conditions: after administration of compound 23
[4] = Cycle 1 Day 1, 5 mg once daily (n = 1)
[5] = Cycle 1 Day 1, 15 mg once daily (n = 9)
[6] = Cycle 1 Day 1, 25 mg once daily (n = 6)
[7] = Cycle 1 Day 1, 50 mg once daily (n = 2)
[8] = 25 mg and 50 mg single daily dose administered fasting

accumulation upon repeat daily dosing ([1]; 5 to 50 mg once daily): no accumulation
dose proportionality of exposures ([1]; 5 to 50 mg once daily): dose-proportional increase in exposures
AUC(0-t) [1, 4]: 26.2 ng·h/mL
Cmax [1, 4]: 4.35 ng/mL
half-life [1, 4]: 7.72 h
Tmax [1, 4]: 2 h
AUC(0-t) [1, 5]: 129 ng·h/mL
Cmax [1, 5]: 16.2 ng/mL
half-life [1, 5]: 7.14 h
Tmax [1, 5]: 2 h
AUC(0-t) [1, 6]: 201 ng·h/mL
Cmax [1, 6]: 30.1 ng/mL
half-life [1, 6]: 6.82 h
Tmax [1, 6]: 1.5 h
AUC(0-t) [1, 7]: 502 ng·h/mL
Cmax [1, 7]: 79.2 ng/mL
half-life [1, 7]: 5.88 h
Tmax [1, 7]: 2.5 h
Compound: C[C@H]1CCCN(Cc2cc3c(c(C(F)(F)F)c2)CN(c2cccc([C@]4(c5nncn5C)C[C@@H](C)C4)c2)C3=O)C1 [Compound 23]
adverse events induced [2, 8]: signficant events of nausea, vomiting, synocope, tachycardia, hypotension, and bradycardia
time to onset of adverse events [2, 8]: ≤ 2 h
time to resolution of adverse events ([2]; nausea, vomiting, headache, hypotension, tachycardia, bradycardia, prior to the next dose): ≤ 24 h
need for antiemetic after weaning ([3]; daily compound 23 after patient weaned off oral granisetron after four weeks): without the need for granisetron
need for antiemetic after weaning ([3]; daily compound 23 after patient weaned off oral ondansetron after two weeks): without the need for ondanesetron
levels of 5-HT in the local gut (5-HT): increased levels of 5-HT in the local gut

Compound: CN(C)CCOC(c1ccccc1)c1ccccc1 [diphenhydramine]
control of nausea and vomiting symptoms ([3]; oral or parenteral 25 mg or 50 mg 30 minutes prior to compound 23): did not control the patient's nausea and vomiting sympotms

Compound: CN1C2CCCC1CC(NC(=O)c1nn(C)c3ccccc13)C2 (stereo not shown) [granisetron]
effect on emetic symptoms (nausea and vomiting) [3]: reduced emetic symptoms

Compound: CCN(CC)CCNC(=O)c1cc(Cl)c(N)cc1OC [metoclopramide]
control of nausea and vomiting symptoms ([3]; oral 10 mg 30 minutes prior to compound 23): did not control the patient's nausea and vomiting sympotms

Compound: Cc1nccn1CC1CCc2c(c3ccccc3n2C)C1=O (stereo not shown) [ondansetron]
effect on emetic symptoms (nausea and vomiting) [3]: reduced emetic symptoms
